Assay results reported in US20180002319A1, “MACROCYCLIC PICOLINAMIDE COMPOUNDS WITH FUNGICIDAL ACTIVITY” (DOW AGROSCIENCES LLC, priority 2014, published 2018).
Read-outs that look alike come from different tables or passages of the source.

How the values were obtained:
Zymoseptoria tritici = assay: Leaf Blotch of Wheat (SEPTTR) fungicidal activity; type: in vivo; settings: Low Volume application, 121.5 g/H, wheat leaf blotch
Method: Example A: Evaluation of Fungicidal Activity: Leaf Blotch of Wheat (Zymoseptoria tritici; Bayer Code […]) Technical grades of materials were dissolved in acetone, which were then mixed with nine volumes of H2O containing 110 ppm Triton X-100. The fungicide solutions were applied onto wheat seedlings using an automated booth sprayer to run-off. All sprayed plants were allowed to air dry prior to further handling. All fungicides were evaluated using the aforementioned method for their activity vs. all target diseases, unless stated otherwise. Wheat leaf blotch and brown rust activity were also evaluated using track spray applications, in which case the fungicides were formulated as EC formulations, containing 0.1% Trycol 5941 in the spray solutions. Wheat plants (variety Yuma) were grown from seed in a greenhouse in 50% mineral soil/50% soil-less Metro mix until the first leaf was fully emerged, with 7-10 seedlings per pot. These plants were inoculated with an aqueous spore suspension of Zymoseptoria tritici either prior to or after fungicide treatments. After inoculation the plants were kept in 100% relative humidity (one day in a dark dew chamber followed by two to three days in a lighted dew chamber at 20° C.) to permit spores to germinate and infect the leaf. The plants were then transferred to a greenhouse set at 20° C. for disease to develop. When disease symptoms were fully expressed on the 1st leaves of untreated plants, infection levels were assessed on a scale of 0 to 100 percent disease severity. Percent disease control was calculated using the ratio of disease severity on treated plants relative to untreated plants.

Puccinia triticina = assay: Wheat Brown Rust (PUCCRT) fungicidal activity; type: in vivo; settings: Low Volume application, 121.5 g/H
Method: Technical grades of materials were dissolved in acetone, which were then mixed with nine volumes of H2O containing 110 ppm Triton X-100. The fungicide solutions were applied onto wheat seedlings using an automated booth sprayer to run-off. All sprayed plants were allowed to air dry prior to further handling. All fungicides were evaluated using the aforementioned method for their activity vs. all target diseases, unless stated otherwise. Wheat leaf blotch and brown rust activity were also evaluated using track spray applications, in which case the fungicides were formulated as EC formulations, containing 0.1% Trycol 5941 in the spray solutions. Wheat plants (variety Yuma) were grown from seed in a greenhouse in 50% mineral soil/50% soil-less Metro mix until the first leaf was fully emerged, with 7-10 seedlings per pot. These plants were inoculated with an aqueous spore suspension of Zymoseptoria tritici either prior to or after fungicide treatments. After inoculation the plants were kept in 100% relative humidity (one day in a dark dew chamber followed by two to three days in a lighted dew chamber at 20° C.) to permit spores to germinate and infect the leaf. The plants were then transferred to a greenhouse set at 20° C. for disease to develop. When disease symptoms were fully expressed on the 1st leaves of untreated plants, infection levels were assessed on a scale of 0 to 100 percent disease severity. Percent disease control was calculated using the ratio of disease severity on treated plants relative to untreated plants. Example B: Evaluation of Fungicidal Activity: Wheat Brown Rust (Puccinia triticina; Bayer Code PUCCRT) Wheat plants (variety Yuma) were grown from seed in a greenhouse in 50% mineral soil/50% soil-less Metro mix until the first leaf was fully emerged, with 7-10 seedlings per pot. These plants were inoculated with an aqueous spore suspension of Puccinia triticina either prior to or after fungicide treatments. After inoculation the plants were kept in a dark dew room at 22° C. with 100% relative humidity overnight to permit spores to germinate and infect the leaf. The plants were then transferred to a greenhouse set at 24° C. for disease to develop. Fungicide formulation, application and disease assessment followed the procedures as described in the Example A.

[1] = 24 h, 1 day protectant, read-out: SEPTTR disease control, 1DP (1 Day Protectant)
[2] = 72 h, 3 day curative, read-out: SEPTTR disease control, 3DC (3 Day Curative)
[3] = 24 h, 1 day protectant, read-out: PUCCRT disease control, 1DP (1 Day Protectant)
[4] = 72 h, 3 day curative, read-out: PUCCRT disease control, 3DC (3 Day Curative)

| SMILES | pest or weed control at 121.5 g/ha (Zymoseptoria tritici; [1]) [%] | pest or weed control at 121.5 g/ha (Zymoseptoria tritici; [2]) [%] | pest or weed control at 121.5 g/ha (Puccinia triticina; [3]) [%] | pest or weed control at 121.5 g/ha (Puccinia triticina; [4]) [%] |
| --- | --- | --- | --- | --- |
| CCC[C@H]1CCCC[C@H](NC(=O)c2nccc(OC)c2OCOC(C)=O)C(=O)O[C@@H](C)[C@@H]1OC(=O)C(C)C [Compound 31] | < 80 | < 80 | > 80 | < 80 |
| COc1ccc(CO[C@H]2[C@H](C)OC(=O)[C@@H](NC(=O)c3nccc(OC)c3OCOC(C)=O)CCOC[C@@H]2OCc2ccc(OC)cc2)cc1 [Compound 32] | – | < 80 | – | < 80 |
| COc1ccnc(C(=O)N[C@H]2CCCC[C@@H]3OC(C)(C)O[C@H]3[C@H](C)OC2=O)c1OCOC(C)=O [Compound 33] | < 80 | > 80 | > 80 | > 80 |
| COc1ccnc(C(=O)N[C@H]2CCCC[C@H](OC)[C@@H](OC3CCCC3)[C@H](C)OC2=O)c1OCOC(C)=O [Compound 34] | < 80 | > 80 | > 80 | > 80 |
| COc1ccnc(C(=O)N[C@H]2CCCC[C@H](Oc3ccccc3)[C@@H](OC3CCCC3)[C@H](C)OC2=O)c1OCOC(C)=O [Compound 36] | < 80 | < 80 | > 80 | > 80 |
| CCCOC(=O)O[C@H]1CCCC[C@H](NC(=O)c2nccc(OC)c2OCOC(C)=O)C(=O)O[C@@H](C)[C@@H]1OCC(C)C [Compound 38] | > 80 | > 80 | > 80 | < 80 |
| COc1ccnc(C(=O)N[C@H]2CCOC[C@H](OC)[C@@H](Oc3ccccc3)[C@H](C)OC2=O)c1OCOC(C)=O [Compound 40] | > 80 | > 80 | > 80 | > 80 |
| CCCO[C@H]1COCC[C@H](NC(=O)c2nccc(OC)c2OCOC(C)=O)C(=O)O[C@@H](C)[C@@H]1Oc1ccccc1 [Compound 41] | > 80 | > 80 | > 80 | > 80 |
| CCCO[C@H]1[C@H](C)OC(=O)[C@@H](NC(=O)c2nccc(OC)c2OCOC(C)=O)CCOC[C@@H]1Oc1ccccc1 [Compound 42] | < 80 | < 80 | > 80 | < 80 |
| COc1ccnc(C(=O)N[C@H]2CCOC[C@H](OC(=O)C(C)C)[C@@H](Oc3ccccc3)[C@H](C)OC2=O)c1OCOC(C)=O [Compound 44] | < 80 | < 80 | > 80 | > 80 |
| COc1ccnc(C(=O)N[C@H]2CCOC[C@H](OCC(C)C)[C@@H](Oc3ccccc3)[C@H](C)OC2=O)c1OCOC(C)=O [Compound 45] | > 80 | > 80 | > 80 | > 80 |
| COc1ccnc(C(=O)N[C@H]2CCOC[C@H](Oc3ccccc3)[C@@H](OCC(C)C)[C@H](C)OC2=O)c1OCOC(C)=O [Compound 46] | > 80 | < 80 | > 80 | < 80 |
| COc1ccnc(C(=O)N[C@H]2CCOC[C@H](Oc3ccccc3)[C@@H](Oc3ccccc3)[C@H](C)OC2=O)c1OC(C)=O [Compound 47] | > 80 | > 80 | > 80 | > 80 |
| COc1ccnc(C(=O)N[C@H]2CCOC[C@H](OC)[C@@H](Oc3ccccc3)[C@H](C)OC2=O)c1OC(C)=O [Compound 48] | > 80 | > 80 | > 80 | > 80 |
